# Measured values as given in patent publication US12679849B2, “Macrocyclic compounds as STING agonists” (LUPIN LIMITED, priority 2019, dated 2026).
# pEC50: −log10 of the molar value.
# Test system: IFNβ
# Assay: Cytokine (IFNβ) secretion in serum samples from CT-26 tumor bearing BALB/c mice
# Assay type: in vivo, mouse
# Details: serum of CT-26 tumor-bearing BALB/c mice, 0.5 mg/kg, 3.5 h
# Description: Quantification of the Cytokine Secretion in Serum Samples from the CT-26 Tumor Bearing BALB/c Mice
# CT-26 tumor-bearing animals were administered with test compounds at the dose of 0.5 mg/kg, in a dose-volume of 5 ml/kg. Serum samples were collected at designated time points (3.5 h) and frozen at −80° C. till further estimation. Mouse serum samples were diluted appropriately with dilution buffer before estimation of IFNβ utilizing commercially available kits (VeriKine Mouse IFN Beta ELISA, PBL assay science, Catalog No 42400-2). Raw data values were corrected with the dilution factor and finally expressed in pg/mL.
row,Compound,IFNβ secretion [pg/mL]
1,"CCn1nc(C)cc1C(=O)Nc1nc2cc(C(N)=O)cc3c2n1C/C=C/Cn1c(NC(=O)c2cc(C)nn2CC)nc2cc(C(N)=O)cc(c21)OCC(N1CC2CCC(C1)O2)CO3 [Compound 1, (E)-8-(8-oxa-3-azabicyclo[3.2.1]octan-3-yl)-1,15-bis(1-ethyl-3-methyl-1H-pyrazole-5-carboxamido)-8,9,16,19-tetrahydro-7H-6,10-dioxa-2,14,15a,19a-tetraazacyclopentadeca[3,2,1-cd:8,9,10-c′d′]diindene-4,12-dicarboxamide]",4344

# Biological target: T1, Human STING (Homo sapiens, UniProt Q86WV6, G230A/H232R/R293Q/R71H)
# T1 construct: using human THP1-Blue™ ISG SEAP based reporter cell line (Invivogen); host or cells: THP1-Blue ISG (human monocytic THP-1 derived SEAP reporter line)
# Assay: Stimulation of human STING signalling in THP1-Blue ISG SEAP reporter cell line
# Assay type: cell-based
# Details: THP1-Blue ISG cells, 18-20 hours incubation
# Description: Stimulation of Human STING Signalling in THP1 Cell Line
# Compounds were tested for their STING activation potential using human THP1-Blue™ ISG SEAP based reporter cell line (Invivogen). Briefly, THP1-Blue ISG cells (100,000 cells/well) in 96 well plate were treated with varying concentrations of test and reference compounds and incubated at 37° C. with 5% CO2 for 18-20 hours. The control untreated cells were also set up. Post incubation, the cell supernatant was tested for SEAP (Secreted Embryonic Alkaline Phosphatase) activity using the QuantiBlue™ substrate reagent (Invivogen). The formation of blue coloured product was quantified by measuring absorbance at wavelength of 620 nm using PheraStar/Tecan reader. The average of duplicate readouts for each data point was plotted in GraphPad prism 6 against the concentration of test or reference compound to calculate EC50 value. The fold of SEAP induction or increase in luminescence at different data points was estimated against the un-stimulated cell control set.
# T1 sequence (Q86WV6 whole entry R71H/G230A/H232R/R293Q): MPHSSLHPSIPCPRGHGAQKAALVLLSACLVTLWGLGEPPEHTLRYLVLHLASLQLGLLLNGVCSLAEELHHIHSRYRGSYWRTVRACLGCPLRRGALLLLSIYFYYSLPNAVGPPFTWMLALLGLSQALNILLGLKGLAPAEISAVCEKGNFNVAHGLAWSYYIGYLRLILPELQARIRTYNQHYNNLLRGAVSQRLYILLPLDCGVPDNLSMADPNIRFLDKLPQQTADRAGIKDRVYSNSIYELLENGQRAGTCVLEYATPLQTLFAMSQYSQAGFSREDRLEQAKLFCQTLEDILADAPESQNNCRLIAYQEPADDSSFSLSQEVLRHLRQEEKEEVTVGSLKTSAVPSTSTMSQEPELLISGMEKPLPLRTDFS
row,Compound,pEC50
1,"CCn1nc(C)cc1C(=O)Nc1nc2cc(C(N)=O)cc3c2n1C/C=C/Cn1c(NC(=O)c2cc(C)nn2CC)nc2cc(C(N)=O)cc(c21)OCC(N1CC2CCC(C1)O2)CO3 [Compound 1, (E)-8-(8-oxa-3-azabicyclo[3.2.1]octan-3-yl)-1,15-bis(1-ethyl-3-methyl-1H-pyrazole-5-carboxamido)-8,9,16,19-tetrahydro-7H-6,10-dioxa-2,14,15a,19a-tetraazacyclopentadeca[3,2,1-cd:8,9,10-c′d′]diindene-4,12-dicarboxamide]",8.00 to 9.00
2,"CCn1nc(C)cc1C(=O)Nc1nc2cc(C(N)=O)cc3c2n1C/C=C/Cn1c(NC(=O)c2cc(C)nn2CC)nc2cc(C(N)=O)cc(c21)OCC(N1CCOCC1)CO3 [Compound 3, (E)-1,15-bis(1-ethyl-3-methyl-1H-pyrazole-5-carboxamido)-8-morpholino-8,9,16,19-tetrahydro-7H-6,10-dioxa-2,14,15a,19a-tetraazacyclopentadeca[3,2,1-cd:8,9,10-c′d′]diindene-4,12-dicarboxamide]",8.00 to 9.00
3,"CCn1nc(C)cc1C(=O)Nc1nc2cc(C(N)=O)cc3c2n1C/C=C/Cn1c(NC(=O)c2cc(C)nn2CC)nc2cc(C(N)=O)cc(c21)OCC(N1CCC(F)(F)CC1)CO3 [Compound 4, (E)-8-(4,4-difluoropiperidin-1-yl)-1,15-bis(1-ethyl-3-methyl-1H-pyrazole-5-carboxamido)-8,9,16,19-tetrahydro-7H-6,10-dioxa-2,14,15a,19a-tetraazacyclopentadeca[3,2,1-cd:8,9,10-c′d′]diindene-4,12-dicarboxamide]",7.00 to 7.96
4,"CCn1nc(C)cc1C(=O)Nc1nc2cc(C(N)=O)cc3c2n1C/C=C/Cn1c(NC(=O)c2cc(C)nn2CC)nc2cc(C(N)=O)cc(c21)OCC(N1C[C@@H](C)O[C@@H](C)C1)CO3 [Compound 5, (E)-8-((2S,6R)-2,6-dimethylmorpholino)-1,15-bis(1-ethyl-3-methyl-1H-pyrazole-5-carboxamido)-8,9,16,19-tetrahydro-7H-6,10-dioxa-2,14,15a,19a-tetraazacyclopentadeca[3,2,1-cd:8,9,10-c′d′]diindene-4,12-dicarboxamide]",8.00 to 9.00
5,"CCn1nc(C)cc1C(=O)Nc1nc2cc(C(N)=O)cc3c2n1C/C=C/Cn1c(NC(=O)c2cc(C)nn2CC)nc2cc(C(N)=O)cc(c21)OCC(N1CC[C@H](OC)C1)CO3 [Compound 6, (S,E)-1,15-bis(1-ethyl-3-methyl-1H-pyrazole-5-carboxamido)-8-(3-methoxypyrrolidin-1-yl)-8,9,16,19-tetrahydro-7H-6,10-dioxa-2,14,15a,19a-tetraazacyclopentadeca[3,2,1-cd:8,9,10-c′d′]diindene-4,12-dicarboxamide]",8.00 to 9.00
6,"CCn1nc(C)cc1C(=O)Nc1nc2cc(C(N)=O)cc3c2n1C/C=C/Cn1c(NC(=O)c2cc(C)nn2CC)nc2cc(C(N)=O)cc(c21)OCC(C1CCN(C)CC1)CO3 [Compound 9, (E)-1,15-bis(1-ethyl-3-methyl-1H-pyrazole-5-carboxamido)-8-(1-methylpiperidin-4-yl)-8,9,16,19-tetrahydro-7H-6,10-dioxa-2,14,15a,19a-tetraazacyclopentadeca[3,2,1-cd:8,9,10-c′d′]diindene-4,12-dicarboxamide]",7.00 to 7.96
7,"CCn1nc(C)cc1C(=O)Nc1nc2cc(C(N)=O)cc3c2n1C/C=C/Cn1c(NC(=O)c2cc(C)nn2CC)nc2cc(C(N)=O)cc(c21)OCC(N1CC[C@H](O)C1)CO3 [Compound 11, (S,E)-1,15-bis(1-ethyl-3-methyl-1H-pyrazole-5-carboxamido)-8-(3-hydroxypyrrolidin-1-yl)-8,9,16,19-tetrahydro-7H-6,10-dioxa-2,14,15a,19a-tetraazacyclopentadeca[3,2,1-cd:8,9,10-c′d′]diindene-4,12-dicarboxamide]",8.00 to 9.00
8,"CCn1nc(C)cc1C(=O)Nc1nc2cc(C(N)=O)cc3c2n1C/C=C/Cn1c(NC(=O)c2cc(C)nn2CC)nc2cc(C(N)=O)cc(c21)OCC(N1CC[C@@H](O)C1)CO3 [Compound 12, (R,E)-1,15-bis(1-ethyl-3-methyl-1H-pyrazole-5-carboxamido)-8-(3-hydroxypyrrolidin-1-yl)-8,9,16,19-tetrahydro-7H-6,10-dioxa-2,14,15a,19a-tetraazacyclopentadeca[3,2,1-cd:8,9,10-c′d′]diindene-4,12-dicarboxamide]",8.00 to 9.00
9,"CCn1nc(C)cc1C(=O)Nc1nc2cc(C(N)=O)cc3c2n1C/C=C/Cn1c(NC(=O)c2cc(C)nn2CC)nc2cc(C(N)=O)cc(c21)OCC(CCN1CCOCC1)CO3 [Compound 13, (E)-1,15-bis(1-ethyl-3-methyl-1H-pyrazole-5-carboxamido)-8-(2-morpholinoethyl)-8,9,16,19-tetrahydro-7H-6,10-dioxa-2,14,15a,19a-tetraazacyclopentadeca[3,2,1-cd:8,9,10-c′d′]diindene-4,12-dicarboxamide]",7.00 to 7.96
10,"CCn1nc(C)cc1C(=O)Nc1nc2cc(C(N)=O)cc3c2n1C/C=C/Cn1c(NC(=O)c2cc(C)nn2CC)nc2cc(C(N)=O)cc(c21)OCC(CN1CCOCC1)CO3 [Compound 16, (E)-1,15-bis(1-ethyl-3-methyl-1H-pyrazole-5-carboxamido)-8-(morpholinomethyl)-8,9,16,19-tetrahydro-7H-6,10-dioxa-2,14,15a,19a-tetraazacyclopentadeca[3,2,1-cd:8,9,10-c′d′]diindene-4,12-dicarboxamide]",7.00 to 7.96
11,"CCn1nc(C)cc1C(=O)Nc1nc2cc(C(N)=O)cc3c2n1C/C=C/Cn1c(NC(=O)c2cc(C)nn2CCF)nc2cc(C(N)=O)cc(c21)OCC(N1CCOCC1)CO3 (stereo not drawn) [Compound 17, (E)-15-(1-ethyl-3-methyl-1H-pyrazole-5-carboxamido)-1-(1-(2-fluoroethyl)-3-methyl-1H-pyrazole-5-carboxamido)-8-morpholino-8,9,16,19-tetrahydro-7H-6,10-dioxa-2,14,15a,19a-tetraazacyclopentadeca[3,2,1-cd:8,9,10-c′d′]diindene-4,12-dicarboxamide]",7.00 to 7.96
12,"CCn1nc(C)cc1C(=O)Nc1nc2cc(C(N)=O)cc3c2n1C/C=C/Cn1c(NC(=O)c2cc(C)nn2CC)nc2cc(C(N)=O)cc(c21)OCC(n1ccnc1)CO3 [Compound 19, (E)-1,15-bis(1-ethyl-3-methyl-1H-pyrazole-5-carboxamido)-8-(1H-imidazol-1-yl)-8,9,16,19-tetrahydro-7H-6,10-dioxa-2,14,15a,19a-tetraazacyclopentadeca[3,2,1-cd:8,9,10-c′d′]diindene-4,12-dicarboxamide]",8.00 to 9.00
13,"CCn1nc(C)cc1C(=O)Nc1nc2cc(C(N)=O)cc3c2n1C/C=C/Cn1c(NC(=O)c2cc(C)nn2CC)nc2cc(C(N)=O)cc(c21)O[C@H]1CN[C@@H](CO3)C1 [Compound 20, (33R,35R,E)-12,62-bis(1-ethyl-3-methyl-1H-pyrazole-5-carboxamido)-11H,61H-2,5-dioxa-1,6(7,1)-dibenzo[d]imidazola-3(3,5)-pyrrolidinacyclodecaphan-8-ene-15,65-dicarboxamide]",7.00 to 7.96
14,"CCn1nc(C)cc1C(=O)Nc1nc2cc(C(N)=O)cc3c2n1C/C=C/Cn1c(NC(=O)c2cc(C)nn2CC)nc2cc(C(N)=O)cc(c21)OCC(N1CCC(O)CC1)CO3 [Compound 22, (E)-1,15-bis(1-ethyl-3-methyl-1H-pyrazole-5-carboxamido)-8-(4-hydroxypiperidin-1-yl)-8,9,16,19-tetrahydro-7H-6,10-dioxa-2,14,15a,19a-tetraazacyclopentadeca[3,2,1-cd:8,9,10-c′d′]diindene-4,12-dicarboxamide]",7.00 to 7.96
15,"CCn1nc(C)cc1C(=O)Nc1nc2cc(C(N)=O)cc3c2n1C/C=C/Cn1c(NC(=O)c2cc(C)nn2CC)nc2cc(C(N)=O)cc(c21)OCC(N1CCC(C#N)C1)CO3 (stereo not drawn) [Compound 26, (E)-8-(3-cyanopyrrolidin-1-yl)-1,15-bis(1-ethyl-3-methyl-1H-pyrazole-5-carboxamido)-8,9,16,19-tetrahydro-7H-6,10-dioxa-2,14,15a,19a-tetraazacyclopentadeca[3,2,1-cd:8,9,10-c′d′]diindene-4,12-dicarboxamide]",8.00 to 9.00
16,"CCn1nc(C)cc1C(=O)Nc1nc2cc(C(N)=O)cc3c2n1C/C=C/Cn1c(NC(=O)c2cc(C)nn2CC)nc2cc(C(N)=O)cc(c21)OCC(N1CC[C@@H](OC)C1)CO3 [Compound 35, (R,E)-1,15-bis(1-ethyl-3-methyl-1H-pyrazole-5-carboxamido)-8-(3-methoxypyrrolidin-1-yl)-8,9,16,19-tetrahydro-7H-6,10-dioxa-2,14,15a,19a-tetraazacyclopentadeca[3,2,1-cd:8,9,10-c′d′]diindene-4,12-dicarboxamide]",8.00 to 9.00
17,"CCn1nc(C)cc1C(=O)Nc1nc2cc(C(N)=O)cc3c2n1C/C=C/Cn1c(NC(=O)c2cc(C)nn2CC)nc2cc(C(N)=O)cc(c21)OCC(c1ccccn1)CO3 [Compound 36, (E)-1,15-bis(1-ethyl-3-methyl-1H-pyrazole-5-carboxamido)-8-(pyridin-2-yl)-8,9,16,19-tetrahydro-7H-6,10-dioxa-2,14,15a,19a-tetraazacyclopentadeca[3,2,1-cd:8,9,10-c′d′]diindene-4,12-dicarboxamidexamide]",7.00 to 7.96
